Test results from patent US12508280B2, “Formulations for improving gut health” (DSM IP ASSETS B.V., priority 2018, dated 2025).
Where a name gives a salt, the structure may show the parent alone.

How the values were obtained:
[1] = test system: colonic microbiota (fecal inoculum of two healthy adults); experiment: 16S-targeted Illumina sequencing with flow cytometry, taxa abundance (second set); format: cell-based, human; conditions: 24 h fermentation
Method: (§1) In a second set of in vitro experiments, at the start of the short-term colonic incubations, the test ingredients were added to nutritional medium containing basal nutrients present in the colon (e.g. host-derived glycans such as mucin). Three doses were tested per product. The nutritional medium used for this particular project was again supplemented with NaCl, MgSO4, CaCl2, hemin and bile salts, and with carbon sources glucose, starch and cellobiose. A blank, containing the same nutritional medium as that used for the product incubations, but without product addition, was included for each donor. In doing so, an assessment can be made of the background activity of the bacterial community, which results from fermentation of compounds in the nutritional medium. As a source of the colonic microbiota a fecal inoculum of two healthy adults was added. Incubations were performed for 48 h at 37′C, under shaking (90 rpm) and anaerobic conditions and protected from light. […] For the second set of in vitro experiments, two techniques were combined according to Vandeputte et al.

[2] = test system: colonic microbiota (fecal inoculum of two healthy adults); experiment: Microbiome diversity, alpha and beta (second set); format: cell-based, human
Method: as §1

[3] = test system: fecal suspension from the selected donor; experiment: Intestinal batch fermentation, SCFA production (first set); format: cell-based, human; conditions: after 48 h fermentation, vs corresponding control
Method: In a first set of in vitro experiments at the start of intestinal batch fermentation incubation, all test ingredients were added from stock solutions to the modified nutritional medium, containing (g/l): 2.5 K2HPO4, 10.9 KH2PO4, 2 NaHCO3, 2 yeast extract, 2 peptone, 1 mucin, 0.5 cysteine, 2 Tween 80, 2 glucose, 2 starch, 2 cellobiose, 0.1 NaCl, 0.01 MgSO4·7H2O, 0.01 CaCl2·6H2O, 0.05 hemin, 0.5 bile salts.
The other compounds were prepared in ethanol: • Vitamin K1 (VK1), • MEG-3 0080 EE Oil (MEG-3 0080 EE), • MEG-3 4535 EE Oil (MEG-3 4535 EE), • MEG-3 8000 EE Oil (MEG-3 8000 EE).
(§2) Since ethanol is known to have antimicrobial effects, two blanks for each type of stock solution were included. As a source of the microbial community, a freshly prepared fecal suspension from the selected donor was added to the reactors. […] All tests, except the blanks, were performed in single repetition, resulting in 40 independent incubations, as specified in Table 1. Incubation conditions of the pre-screening experiment and the final experiment were 48 h at 37° C., under shaking (90 rpm) and anaerobic conditions. DNA were extracted from effluent samples collected from each fermentation flask before (0 h fermentation) and after fermentation (24 h fermentation) and use for microbiome composition analysis by Shotgun sequencing. Effluent samples were collected from each fermentation flask before (0 h fermentation) and after fermentation (48 h fermentation), sterilized by filtering through 0.22 μm filters and used for short chain fatty acids (SCFA), quantification of immunological biomarkers and in vitro analysis in cell culture systems.
Short chain fatty acids (SCFA) are an assessment of the microbial carbohydrate metabolism (acetate, propionate and butyrate) or protein metabolism (branched SCFA) and can be compared to typical fermentation patterns for normal GI microbiota. Samples for SCFA analysis were analyzed after 0, 6, 24 and 48 h of incubation for both set of in vitro experiments, above.
SCFA were extracted from the samples with diethyl ether, after the addition of 2-methyl hexanoic acid as an internal standard. Extracts were analysed using a GC-2014 gas chromatograph (Shimadzu's-Hertogenbosch, the Nether-lands), equipped with a capillary fatty acid-free EC-1000Econo-Cap column (dimensions: […]×0.53 mm, film thickness […]; Alltech, Laarne, Belgium), a flame ionization detector and a split injector. The injection volume was […] and the temperature profile was set from 110 to 160° C., with a temperature increase of 6° C. min-1. The carrier gas was nitrogen and the temperature of the injector and detector were […] and 220° C., respectively. The production of unbranched and branched SCFA was calculated by summing the molar concentrations of acetate, propionate, butyrate, valerate and caproate, and summing isobutyrate, isovalerate and isocaproate molar concentrations, respectively. The total SCFA production was defined as the sum of unbranched and branched SCFA.

[4] = test system: Co-cultures of Caco-2 and HT29-MTX-E12 cells; experiment: Barrier integrity, leaky gut model, apical stressor Rhamnolipids; format: cell-based; conditions: 5× dose; 48 h minus 0 h fermentation samples; vs corresponding control
[5] = test system: fecal microbial community; experiment: Microbiome composition by shotgun sequencing: alpha diversity (first set); format: cell-based, human; conditions: after 24 h fermentation, vs corresponding control
Method: as §2
(§3) For the first set of in vitro experiments, total DNA was extracted from all samples collected throughout the study using the QIAamp DNA stool minikit (Qiagen, Crawley, United Kingdom) according to the manufacturer's instructions, apart from addition of a bead-beating step and increasing the lysis temperature to 95° C. as described previously (McCormack et al., 2018).
(§4) After DNA isolation, DNA was quantified using the Qubit High Sensitivity DNA assay (Thermo Fisher). Whole metagenome libraries were then prepared using the Illumina Nextera XT kit (Illumina) in accordance with the manufacturer's instructions, with the following modifications: Firstly, tagmentation time was increased to 7 min and secondly, following incorporation of indices and Ampure purification of the products, the samples were each individually sized by running on an Agilent High Sensitivity Chip (Agilent) and quantified using the Qubit High Sensitivity DNA assay (Thermo Fisher) in accordance with Teagasc Sequencing Platform SOPs. The samples were then pooled equimolarly and sequenced on the Illumina NextSeq 500 with a NextSeq 500/550 v2 high-output reagent kit (300 cycles). All sequencing was done in the Teagasc sequencing facility in accordance with standard Illumina sequencing protocols.
(§5) Delivered raw FASTQ sequence files were quality checked as follows: poor quality and duplicate read removal, as well as trimming was implemented using a combination of SAM and Picard tools. Taxonomy was assigned to the reads using the Kraken software and functional analysis was performed with Super focus.

Bifidobacterium = experiment: Microbiome composition by shotgun sequencing: Bifidobacterium (first set); format: cell-based, human; conditions: after 24 h fermentation, vs corresponding control
Method: as §2, §3, §4, §5

[6] = test system: genes involved in Acetyl-CoA fermentation to Butyrate pathway; experiment: Shotgun sequencing functional analysis: butyrate pathway genes (first set); format: cell-based, human; conditions: 0.2× dose; after 24 h fermentation; vs corresponding control
Method: as §2, §3, §4, §5

HT29 cells = experiment: HT29 cell culture, quantification of immunological biomarkers; format: cell-based; conditions: effluent from 24 h fermentation, vs corresponding control
Method: as §2, with “([…]), […]” for “(0 h fermentation) and after fermentation (48 h fermentation), sterilized by filtering through 0.22 μm filters and used for short chain fatty acids (SCFA), quantification of immunological biomarkers and in vitro analysis in”
For both sets of in vitro experiments, HT29 cells were obtained from American Type Culture Collection (Manassas, VA). Cells were cultured in DMEM supplemented with 10% fetal bovine serum (FBS), 50 units/ml penicillin, 50 μg/ml streptomycin, L-glutamine, and nonessential amino acids (Life Technologies Europe B.V., Zug, Switzerland). Cells were seeded into 12-well plates at 8×10^5 cells per well and used after 2 days of preculture. They were starved in DMEM containing 0.25% FBS for 18 h before treatment. Cells were treated for 24 hours with TNF-α at 100 ng/mL or fermentation supernatants which were sterile filtered and diluted 1:20 in DMEM containing 0.25% FBS. All treatments were done in triplicate. Consequently, cytokines, chemokines and interleukins were quantified in HT29 supernatants using the Luminex Technology (LiquiChip Workstation IS 200, Qiagen, Hilden, Germany) with Bio-Plex Pro Human Cytokine Panel kits (Bio-Rad, Hercules, CA) or with Luminex Screening Assay kits (R&D Systems, Inc., Minneapolis, MN), following the manufacturer's instructions. The data were acquired with the Luminex IS 2.3 software and evaluated with the LiquiChip Analyser software (Qiagen, Hilden, Germany).

For `NC(=O)c1cccnc1` [niacinamide, Niacinamide], the Akkermansiaceae relative abundance ([1]; 0.2× dose, donor C) was “increase Akkermansiaceae relative abundance”, the Erysipelotrichaceae relative abundance ([1]; 1× dose, donor C) was “increase Erysipelotrichaceae relative abundance” and the Erysipelotrichaceae relative abundance ([1]; 5× dose, donor C) was “increase Erysipelotrichaceae relative abundance”. The “beta-diversity (Bray-Curtis distance to control)” value (“beta-diversity” below) ([2]; 0.2× dose, donor D) was “increases beta-diversity”, the “alpha-diversity (Shannon diversity index)” value ([2]; 1× dose, donor C) was “increases alpha-diversity” and the “beta-diversity” value ([2]; 5× dose, donor D) was “increases beta-diversity”.
In the case of `O=C(O)CCCC[C@@H]1SC[C@@H]2NC(=O)N[C@@H]21` [biotin, D-Biotin], the Erysipelotrichaceae relative abundance ([1]; 0.2× dose, donor C) is reported as “increase Erysipelotrichaceae relative abundance”, the Akkermansiaceae relative abundance ([1]; 0.2× dose, donor D) is reported as “increase Akkermansiaceae relative abundance” and the Bifidobacteriaceae relative abundance ([1]; 0.2× dose, donor D) is reported as “increase Bifidobacteriaceae relative abundance”. For the same compound, the “Faecalibacterium prausnitzii relative abundance” value ([1]; 0.2× dose, donor D) was “increase Faecalibacterium prausnitzii relative abundance”, the Erysipelotrichaceae relative abundance ([1]; 1× dose, donor C) was “increase Erysipelotrichaceae relative abundance” and the Barnesiellaceae relative abundance ([1]; 1× dose, donor D) was “increase Barnesiellaceae relative abundance”. For the same compound, the Bifidobacteriaceae relative abundance ([1]; 1× dose, donor D) was “increase Bifidobacteriaceae relative abundance”, the “Faecalibacterium prausnitzii relative abundance” value ([1]; 1× dose, donor D) was “increase Faecalibacterium prausnitzii relative abundance” and the Bifidobacteriaceae relative abundance ([1]; 5× dose, donor D) was “increase Bifidobacteriaceae relative abundance”. The “Faecalibacterium prausnitzii relative abundance” value ([1]; 5× dose, donor D) was “increase Faecalibacterium prausnitzii relative abundance”, the “alpha-diversity (Shannon diversity index)” value ([2]; 0.2× dose, both donors) was “increases alpha-diversity” and the “beta-diversity” value ([2]; 1× dose, both donors) was “increases beta-diversity”. The “alpha-diversity (Shannon diversity index)” value ([2]; 5× dose, donor D) was “increases alpha-diversity” and the “beta-diversity” value ([2]; 5× dose, donor D) was “increases beta-diversity”.
In the case of `C=C1CC[C@H](O)C/C1=C/C=C1\CCC[C@]2(C)[C@@H]([C@H](C)CCCC(C)C)CC[C@@H]12` [Vitamin D, Vitamin D3], the butyrate production ([3]; 0.2× dose) is reported as “increase butyrate production”, the butyrate production ([3]; 1× dose) is reported as “increase butyrate production” and the propionate production ([3]; 1× dose) is reported as “increase propionate production”. The “total SCFAs production” value ([3]; 1× dose) was “increase total SCFAs production”, the propionate production ([3]; 5× dose) was “increase propionate production” and the “total SCFAs production” value ([3]; 5× dose) was “increase total SCFAs production”. The “TEER, apical induction of leaky gut cellular model” value [4] was “increase TEER”, the “microbiome alpha diversity (Shannon diversity index)” value ([5]; 0.2× dose) was “increase microbiome diversity” and the “microbiome alpha diversity (Shannon diversity index)” value ([5]; 5× dose) was “increase microbiome diversity”. For the same compound, the Bifidobacterium relative abundance (Bifidobacterium; 0.2× dose) was “increase Bifidobacterium relative abundance”, the Bifidobacterium relative abundance (Bifidobacterium; 5× dose) was “increase Bifidobacterium relative abundance” and the “relative abundance of genes involved in Acetyl-CoA fermentation to Butyrate pathway” value [6] was “increase relative abundance”. For the same compound, the “MIP3A-CCL20 production by HT29 cells” value (HT29 cells; 0.2× dose) was “increase MIP3A-CCL20 production”, the “MIP3A-CCL20 production by HT29 cells” value (HT29 cells; 1× dose) was “increase MIP3A-CCL20 production” and the “MIP3A-CCL20 production by HT29 cells” value (HT29 cells; 5× dose) was “increase MIP3A-CCL20 production”.
In the case of `Cc1ncc(C[n+]2csc(CCO)c2C)c(N)n1` [thiamine, Thiamine Hydrochloride], the Akkermansiaceae relative abundance ([1]; 1× dose, donor C) is reported as “increase Akkermansiaceae relative abundance”, the Erysipelotrichaceae relative abundance ([1]; 5× dose, donor C) is reported as “increase Erysipelotrichaceae relative abundance” and the “alpha-diversity (Shannon diversity index)” value ([2]; 0.2× dose, donor C) is reported as “increases alpha-diversity”. The “alpha-diversity (Shannon diversity index)” value ([2]; 1× dose, donor C) was “increases alpha-diversity”, the “beta-diversity” value ([2]; 1× dose, donor C) was “increases beta-diversity” and the “beta-diversity” value ([2]; 5× dose, donor D) was “increases beta-diversity”.
For `Cc1ncc(CO)c(CO)c1O.Cl` [pyridoxine, Pyridoxine Hydrochloride], the Akkermansiaceae relative abundance ([1]; 0.2× dose, donor D) was “increase Akkermansiaceae relative abundance”, the “Faecalibacterium prausnitzii relative abundance” value ([1]; 0.2× dose, donor D) was “increase Faecalibacterium prausnitzii relative abundance” and the Erysipelotrichaceae relative abundance ([1]; 1× dose, donor C) was “increase Erysipelotrichaceae relative abundance”. For the same compound, the Akkermansiaceae relative abundance ([1]; 1× dose, donor D) was “increase Akkermansiaceae relative abundance”, the Bifidobacteriaceae relative abundance ([1]; 1× dose, donor D) was “increase Bifidobacteriaceae relative abundance” and the “Faecalibacterium prausnitzii relative abundance” value ([1]; 1× dose, donor D) was “increase Faecalibacterium prausnitzii relative abundance”. The Prevotellaceae relative abundance ([1]; 5× dose, donor C) was “increase Prevotellaceae relative abundance”, the Akkermansiaceae relative abundance ([1]; 5× dose, donor D) was “increase Akkermansiaceae relative abundance” and the Bifidobacteriaceae relative abundance ([1]; 5× dose, donor D) was “increase Bifidobacteriaceae relative abundance”. For the same compound, the “Faecalibacterium prausnitzii relative abundance” value ([1]; 5× dose, donor D) was “increase Faecalibacterium prausnitzii relative abundance”, the Veillonellaceae relative abundance ([1]; 5× dose, donor D) was “increase Veillonellaceae relative abundance” and the “beta-diversity” value ([2]; 0.2× dose, donor D) was “increases beta-diversity”. The “beta-diversity” value ([2]; 1× dose, donor D) was “increases beta-diversity”, the “alpha-diversity (Shannon diversity index)” value ([2]; 5× dose, donor D) was “increases alpha-diversity” and the “beta-diversity” value ([2]; 5× dose, donor D) was “increases beta-diversity”.
